Test results: PubChem BioAssay (NCI)
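Tested at 5 concentrations; 48 h exposure; 96-well plates; endpoints linearly interpolated, else capped at highest concentration. Abbreviation: GI50, concentration required for 50% inhibition of growth. TGI denotes the concentration required for complete inhibition of growth.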

Experiments:
Assay in all cases: NCI-60 cell line screen, 48 h
[1] = tested on: CAKI-1 renal
[2] = tested on: PC-3 prostate
[3] = tested on: ACHN renal
[4] = tested on: SK-OV-3 ovarian
[5] = tested on: CCRF-CEM leukemia
[6] = tested on: SNB-19 CNS
[7] = tested on: A549 NSCLC
[8] = tested on: IGROV1 ovarian
[9] = tested on: MDA-N
[10] = tested on: HL-60(TB) leukemia
[11] = tested on: EKVX NSCLC
[12] = tested on: TK-10 renal
[13] = tested on: NCI-H226 lung
[14] = tested on: UACC-257 melanoma
[15] = tested on: NCI-H23 lung
[16] = tested on: UO-31 renal
[17] = tested on: SK-MEL-5 melanoma
[18] = tested on: 786-0 renal
[19] = tested on: BT-549 breast
[20] = tested on: MALME-3M melanoma
[21] = tested on: OVCAR-4 ovarian
[22] = tested on: SN12C renal
[23] = tested on: RPMI-8226 leukemia
[24] = tested on: U251 CNS
[25] = tested on: HT29 colon
[26] = tested on: SK-MEL-2 melanoma
[27] = tested on: SNB-75 CNS
[28] = tested on: HCT-15 colon
[29] = tested on: NCI-H460 lung
[30] = tested on: SF-295 CNS
[31] = tested on: MDA-MB-231 breast
[32] = tested on: MOLT-4 leukemia
[33] = tested on: RXF 393 renal
[34] = tested on: UACC-62 melanoma
[35] = tested on: OVCAR-5 ovarian
[36] = tested on: KM12 colon
[37] = tested on: COLO 205 colon
[38] = tested on: SK-MEL-28 melanoma
[39] = tested on: NCI/ADR-RES ovarian
[40] = tested on: HCT-116 colon
[41] = tested on: HCC-2998 colon
[42] = tested on: T-47D breast
[43] = tested on: SF-539 CNS
[44] = tested on: NCI-H522 lung
[45] = tested on: HOP-92 NSCLC
[46] = tested on: MCF7 breast
[47] = tested on: A498 renal
[48] = tested on: SW-620 colon
[49] = tested on: DU-145 prostate
[50] = tested on: M14 melanoma
[51] = tested on: K-562 leukemia
[52] = tested on: OVCAR-3 ovarian
[53] = tested on: OVCAR-8 ovarian
[54] = tested on: HS 578T breast
[55] = tested on: LOX IMVI melanoma
[56] = tested on: HOP-62 NSCLC
[57] = tested on: MDA-MB-435
[58] = tested on: SR leukemia
[59] = tested on: SF-268 CNS

Work on CCOC(=O)/C(O)=C(/C=NC(=S)c1ccncc1)C(=O)OCC yielded a TGI [1] of over 100 µM, a TGI [2] of over 100 µM and a TGI [3] of over 100 µM. It also gave a TGI [4] of over 100 µM, a TGI [5] of over 100 µM and a TGI [6] of 97 µM. For the same compound, the TGI [7] was over 100 µM, the TGI [8] was over 100 µM and the TGI [9] was over 100 µM. The TGI [10] was over 100 µM, the TGI [11] was over 100 µM and the GI50 [12] was over 100 µM. The TGI [12] was over 100 µM, the TGI [13] was over 100 µM and the TGI [14] was over 100 µM. For the same compound, the TGI [15] was over 100 µM, the TGI [16] was over 100 µM and the TGI [17] was over 100 µM. The TGI [18] was over 100 µM, the TGI [19] was over 100 µM and the TGI [20] was over 100 µM. The TGI [21] was over 100 µM, the TGI [22] was over 100 µM and the TGI [23] was over 100 µM. For the same compound, the TGI [24] was over 100 µM, the TGI [25] was over 100 µM and the TGI [26] was over 100 µM. For the same compound, the TGI [27] was over 100 µM, the TGI [28] was over 100 µM and the TGI [29] was over 100 µM. It also gave a TGI [30] of over 100 µM, a TGI [31] of over 100 µM and a TGI [32] of over 100 µM. For the same compound, the TGI [33] was over 100 µM, the TGI [34] was over 100 µM and the TGI [35] was over 100 µM. For the same compound, the TGI [36] was over 100 µM, the TGI [37] was over 100 µM and the TGI [38] was over 100 µM. For the same compound, the TGI [39] was over 100 µM, the TGI [40] was over 100 µM and the TGI [41] was over 100 µM. For the same compound, the TGI [42] was over 100 µM, the TGI [43] was over 100 µM and the TGI [44] was over 100 µM. The GI50 [45] was over 100 µM, the TGI [45] was over 100 µM and the TGI [46] was over 100 µM. The TGI [47] was over 100 µM, the TGI [48] was over 100 µM and the TGI [49] was over 100 µM. The TGI [50] was over 100 µM, the TGI [51] was over 100 µM and the TGI [52] was over 28.8 µM. For the same compound, the TGI [53] was over 100 µM, the TGI [54] was over 100 µM and the TGI [55] was over 100 µM. The TGI [56] was over 100 µM, the TGI [57] was over 100 µM and the TGI [58] was over 100 µM. The TGI [59] was over 100 µM.

CC/C(=N/O)c1ccc(Br)s1 showed a TGI [1] of over 100 µM, a TGI [2] of over 100 µM and a TGI [3] of over 100 µM. The TGI [4] was over 100 µM, the TGI [5] was 97.1 µM and the TGI [6] was over 100 µM. For the same compound, the TGI [7] was over 100 µM, the TGI [8] was over 100 µM and the TGI [9] was over 100 µM. The TGI [10] was over 100 µM, the TGI [11] was over 100 µM and the TGI [12] was over 100 µM. For the same compound, the TGI [13] was over 100 µM, the TGI [14] was over 100 µM and the TGI [15] was over 100 µM. It also gave a TGI [16] of over 100 µM, a TGI [17] of over 100 µM and a TGI [18] of over 100 µM. It also gave a TGI [19] of over 100 µM, a TGI [20] of over 100 µM and a TGI [21] of over 100 µM. For the same compound, the TGI [22] was over 100 µM, the TGI [24] was over 100 µM and the TGI [25] was over 100 µM. It also gave a TGI [26] of over 100 µM, a TGI [27] of over 100 µM and a TGI [28] of over 100 µM. For the same compound, the TGI [29] was over 100 µM, the TGI [30] was over 100 µM and the TGI [31] was over 100 µM. For the same compound, the TGI [32] was over 100 µM, the TGI [33] was over 100 µM and the TGI [34] was over 100 µM. The TGI [35] was over 100 µM, the TGI [36] was over 100 µM and the TGI [37] was over 100 µM. It also gave a TGI [38] of over 100 µM, a TGI [39] of over 100 µM and a TGI [40] of over 100 µM. For the same compound, the TGI [41] was over 100 µM, the TGI [42] was over 100 µM and the TGI [43] was over 100 µM. It also gave a TGI [44] of over 100 µM, a TGI [45] of over 100 µM and a TGI [46] of over 100 µM. It also gave a TGI [47] of over 100 µM, a TGI [48] of over 100 µM and a TGI [49] of over 100 µM. It also gave a TGI [50] of over 100 µM, a TGI [51] of over 100 µM and a TGI [52] of over 100 µM. For the same compound, the TGI [53] was over 100 µM, the TGI [54] was over 100 µM and the TGI [55] was over 100 µM. It also gave a TGI [56] of over 100 µM, a TGI [57] of over 100 µM and a TGI [58] of over 100 µM. For the same compound, the TGI [59] was over 100 µM.
